According to patent US11578130B2, “Regulatable chimeric antigen receptor” (Novartis AG, priority 2013, dated 2023):
Like-named read-outs stand apart in the source and are kept apart here.

Assays:
[1] = cited from earlier work
[2] = tested on: PD-1-positive CD4, CD8 and PD-1-negative CD4 T cells; test: FACS analysis of PBMC for PD-1-positive and PD-1-negative T cells after RAD001 treatment; assay type: in vivo, human; conditions: adjusted for differences in baseline PD-1 expression; for decrease in PD-1-positive CD8 T cells: pooled RAD001 cohort compared to placebo cohort
[3] = Clinical trial in elderly volunteers: adverse events, safety and tolerability; assay type: in vivo, human; conditions: for Blood cholesterol increased, treatment-related AE / Conjunctivitis, treatment-related AE / Diarrhea, treatment-related AE / Dry mouth, treatment-related AE / Dyspepsia, treatment-related AE / Erythema, treatment-related AE / Fatigue, treatment-related AE / Headache, treatment-related AE / Insomnia, treatment-related AE / Limb discomfort, treatment-related AE / Low density lipoprotein increased, treatment-related AE / Mouth ulceration, treatment-related AE / Mucosal inflammation, treatment-related AE / Neutropenia, treatment-related AE / Oral pain, treatment-related AE / Paresthesia oral, treatment-related AE / Patients with AE(s), treatment-related / Pruritus, treatment-related AE / Stomatitis, treatment-related AE / Thrombocytopenia, treatment-related AE / Tongue ulceration, treatment-related AE / Total AE(s), treatment-related / Urinary tract infection, treatment-related AE: N = 53
JNL cells = test: Single vector CD19 RCAR constructs in JNL cells, NFAT reporter activation by dimerization molecule; assay type: cell-based; conditions: nM to sub-nM doses
Source text: The constructs and viral particles were made and tested essentially as described in Example 11. Viral particles were introduced into JNL cells and evaluated for activity essentially as described in Example 1 except that the target was CD19 (as opposed to EGFRviii).
Construct 143775 was introduced into cells and the affect of dimerization molecule concentration on activation evaluated essentially as described in Example 14.

[4] = Clinical trial: energy and exercise questionnaires one year after dosing; assay type: in vivo, human; conditions: 0.5 mg daily dosing cohort
[5] = tested on: A/H1N1 strain A/New Jersey/8/76; assay type: in vivo, human
[6] = tested on: A/H1N1/California/07/2009 influenza; test: Serum anti-influenza IgG and IgM levels before and 4 weeks post influenza vaccination; assay type: in vivo, human; conditions: RAD001 versus placebo cohorts, Kruskal-Wallis rank sum test
Method: FIGS. 30A and 30B are graphic representations of IgG and IgM levels before and after influenza vaccination. Levels of anti-A/H1N1/California/07/2009 influenza IgG and IgM were measured in serum obtained from subjects before and 4 weeks post influenza vaccination.

CO[C@H]1C[C@@H]2CC[C@@H](C)[C@@](O)(O2)C(=O)C(=O)N2CCCC[C@H]2C(=O)O[C@H]([C@H](C)C[C@@H]2CC[C@@H](OCCO)[C@H](OC)C2)CC(=O)[C@H](C)/C=C(\C)[C@@H](O)[C@@H](OC)C(=O)[C@H](C)C[C@H](C)/C=C/C=C/C=C/1C [RAD001, (1R,9S,12S,15R,16E,18R,19R,21R,23S,24E,26E,28E,30S,32S,35R)-1,18-dihydroxy-12-{(1R)-2-[(1S,3R,4R)-4-(2-hydroxyethoxy)-3-methoxycyclohexyl]-1-methylethyl}-19,30-dimethoxy-15,17,21,23,29,35-hexamethyl-11,36-dioxa-4-aza-tricyclo[30.3.1.04,9]hexatriaconta-16,24,26,28-tetraene-2,3,10,14,20-pentaone]
trough level of RAD001 ([1]; 10 mg daily oncology dosing regimen): approximately 20 ng/ml | trough level of RAD001 ([1]; 0.75-1.5 mg bid transplant dosing regimen): approximately 3 ng/ml | decrease in PD-1-positive CD8 T cells ([2]; week 6): 37.4% | decrease in PD-1+ CD4 T cells ([2]; week 6, pooled RAD cohort compared to placebo cohort): 30.2% | decrease in PD-1-positive CD8 T cells ([2]; week 12): 41.4% | decrease in PD-1-positive CD4 T cells ([2]; week 12, pooled RAD cohort compared to placebo cohort): 32.7% | Blood cholesterol increased, treatment-related AE ([3]; RAD001 0.5 mg daily): 2 (3.8%) n (%) | Conjunctivitis, treatment-related AE ([3]; RAD001 0.5 mg daily): 0 n (%) | Diarrhea, treatment-related AE ([3]; RAD001 0.5 mg daily): 1 (1.9%) n (%) | Dry mouth, treatment-related AE ([3]; RAD001 0.5 mg daily): 0 n (%) | Dyspepsia, treatment-related AE ([3]; RAD001 0.5 mg daily): 0 n (%) | Erythema, treatment-related AE ([3]; RAD001 0.5 mg daily): 0 n (%) | Fatigue, treatment-related AE ([3]; RAD001 0.5 mg daily): 0 n (%) | Headache, treatment-related AE ([3]; RAD001 0.5 mg daily): 0 n (%) | Insomnia, treatment-related AE ([3]; RAD001 0.5 mg daily): 1 (1.9%) n (%) | Limb discomfort, treatment-related AE ([3]; RAD001 0.5 mg daily): 0 n (%) | Low density lipoprotein increased, treatment-related AE ([3]; RAD001 0.5 mg daily): 2 (3.8%) n (%) | Mouth ulceration, treatment-related AE ([3]; RAD001 0.5 mg daily): 6 (11.3%) n (%) | Mucosal inflammation, treatment-related AE ([3]; RAD001 0.5 mg daily): 0 n (%) | Neutropenia, treatment-related AE ([3]; RAD001 0.5 mg daily): 0 n (%) | Oral pain, treatment-related AE ([3]; RAD001 0.5 mg daily): 0 n (%) | Paresthesia oral, treatment-related AE ([3]; RAD001 0.5 mg daily): 2 (3.8%) n (%) | Patients with AE(s), treatment-related ([3]; RAD001 0.5 mg daily): 22 (41.5%) n (%) | Pruritus, treatment-related AE ([3]; RAD001 0.5 mg daily): 0 n (%) | Stomatitis, treatment-related AE ([3]; RAD001 0.5 mg daily): 0 n (%) | Thrombocytopenia, treatment-related AE ([3]; RAD001 0.5 mg daily): 0 n (%) | Tongue ulceration, treatment-related AE ([3]; RAD001 0.5 mg daily): 3 (5.7%) n (%) | Total AE(s), treatment-related ([3]; RAD001 0.5 mg daily): 35 n (%) | Urinary tract infection, treatment-related AE ([3]; RAD001 0.5 mg daily): 0 n (%) | Blood cholesterol increased, treatment-related AE ([3]; RAD001 5 mg weekly): 2 (3.8%) n (%) | Conjunctivitis, treatment-related AE ([3]; RAD001 5 mg weekly): 2 (3.8%) n (%) | Diarrhea, treatment-related AE ([3]; RAD001 5 mg weekly): 4 (7.5%) n (%) | Dry mouth, treatment-related AE ([3]; RAD001 5 mg weekly): 0 n (%) | Dyspepsia, treatment-related AE ([3]; RAD001 5 mg weekly): 3 (5.7%) n (%) | Erythema, treatment-related AE ([3]; RAD001 5 mg weekly): 2 (3.8%) n (%) | Fatigue, treatment-related AE ([3]; RAD001 5 mg weekly): 2 (3.8%) n (%) | Headache, treatment-related AE ([3]; RAD001 5 mg weekly): 2 (3.8%) n (%) | Insomnia, treatment-related AE ([3]; RAD001 5 mg weekly): 2 (3.8%) n (%) | Limb discomfort, treatment-related AE ([3]; RAD001 5 mg weekly): 2 (3.8%) n (%) | Low density lipoprotein increased, treatment-related AE ([3]; RAD001 5 mg weekly): 1 (1.9%) n (%) | Mouth ulceration, treatment-related AE ([3]; RAD001 5 mg weekly): 2 (3.8%) n (%) | Mucosal inflammation, treatment-related AE ([3]; RAD001 5 mg weekly): 0 n (%) | Neutropenia, treatment-related AE ([3]; RAD001 5 mg weekly): 0 n (%) | Oral pain, treatment-related AE ([3]; RAD001 5 mg weekly): 2 (3.8%) n (%) | Paresthesia oral, treatment-related AE ([3]; RAD001 5 mg weekly): 0 n (%) | Patients with AE(s), treatment-related ([3]; RAD001 5 mg weekly): 20 (37.7%) n (%) | Pruritus, treatment-related AE ([3]; RAD001 5 mg weekly): 2 (3.8%) n (%) | Stomatitis, treatment-related AE ([3]; RAD001 5 mg weekly): 0 n (%) | Thrombocytopenia, treatment-related AE ([3]; RAD001 5 mg weekly): 0 n (%) | Tongue ulceration, treatment-related AE ([3]; RAD001 5 mg weekly): 1 (1.9%) n (%) | Total AE(s), treatment-related ([3]; RAD001 5 mg weekly): 46 n (%) | Urinary tract infection, treatment-related AE ([3]; RAD001 5 mg weekly): 0 n (%) | Blood cholesterol increased, treatment-related AE ([3]; RAD001 20 mg weekly): 2 (3.8%) n (%) | Conjunctivitis, treatment-related AE ([3]; RAD001 20 mg weekly): 0 n (%) | Diarrhea, treatment-related AE ([3]; RAD001 20 mg weekly): 1 (1.9%) n (%) | Dry mouth, treatment-related AE ([3]; RAD001 20 mg weekly): 2 (3.8%) n (%) | Dyspepsia, treatment-related AE ([3]; RAD001 20 mg weekly): 2 (3.8%) n (%) | Erythema, treatment-related AE ([3]; RAD001 20 mg weekly): 0 n (%) | Fatigue, treatment-related AE ([3]; RAD001 20 mg weekly): 4 (7.5%) n (%) | Headache, treatment-related AE ([3]; RAD001 20 mg weekly): 9 (17.0%) n (%) | Insomnia, treatment-related AE ([3]; RAD001 20 mg weekly): 1 (1.9%) n (%) | Limb discomfort, treatment-related AE ([3]; RAD001 20 mg weekly): 0 n (%) | Low density lipoprotein increased, treatment-related AE ([3]; RAD001 20 mg weekly): 2 (3.8%) n (%) | Mouth ulceration, treatment-related AE ([3]; RAD001 20 mg weekly): 9 (17.0%) n (%) | Mucosal inflammation, treatment-related AE ([3]; RAD001 20 mg weekly): 2 (3.8%) n (%) | Neutropenia, treatment-related AE ([3]; RAD001 20 mg weekly): 3 (5.7%) n (%) | Oral pain, treatment-related AE ([3]; RAD001 20 mg weekly): 1 (1.9%) n (%) | Paresthesia oral, treatment-related AE ([3]; RAD001 20 mg weekly): 0 n (%) | Patients with AE(s), treatment-related ([3]; RAD001 20 mg weekly): 27 (50.9%) n (%) | Pruritus, treatment-related AE ([3]; RAD001 20 mg weekly): 1 (1.9%) n (%) | Stomatitis, treatment-related AE ([3]; RAD001 20 mg weekly): 2 (3.8%) n (%) | Thrombocytopenia, treatment-related AE ([3]; RAD001 20 mg weekly): 2 (3.8%) n (%) | Tongue ulceration, treatment-related AE ([3]; RAD001 20 mg weekly): 0 n (%) | Total AE(s), treatment-related ([3]; RAD001 20 mg weekly): 109 n (%) | Urinary tract infection, treatment-related AE ([3]; RAD001 20 mg weekly): 2 (3.8%) n (%) | tolerability ([3]; elderly volunteers, 6 weeks, particularly 0.5 mg daily and 5 mg weekly dosing regimens): well tolerated | number of severe AEs assessed as related to RAD001 (mouth ulcers) ([3]; subject treated with 20 mg weekly RAD001): one | activation of RCAR (Construct 143775) over dimerization molecule concentration (JNL cells): effective at a broad range of concentrations | self-reported energy and exercise ability compared to placebo [4]: increased energy and exercise ability | Percentage of subjects who seroconvert to heterologous strain 4 weeks after seasonal influenza vaccination, A/H1N1 strain: A/New Jersey/8/76 ([5]; RAD001 5 mg weekly): 16% | Percentage of subjects who seroconvert to heterologous strain 4 weeks after seasonal influenza vaccination, A/H1N1 strain: A/New Jersey/8/76 ([5]; RAD001 20 mg weekly): 8% | increase in the HI GMT ratios for the heterologous strain ([5]; RAD001 as compared to placebo cohorts): higher | change from baseline to 4 weeks post vaccination in anti-H1N1 influenza IgG levels [6]: No significant difference | change from baseline to 4 weeks post vaccination in anti-H1N1 influenza IgM levels [6]: No significant difference
